Patent US6511666B1, “Diagnostics and treatments of periodontal disease” (priority 1995, dated 2003)

Columns and labels:
[1] = molecular target: T1, 45 kDa Arg-specific proteinase (Porphyromonas gingivalis, UniProt P28784); test: biochemical; type: biochemical, P. gingivalis W50; conditions: for activity at 100 µM / activity at 1000 µM / activity at 10000 µM: read-out: Activity (%) of the 45 kDa Arg-specific proteinase
T1 construct: made in house; host or cells: native protein purified from sonicate of P. gingivalis W50 cells (Q-sepharose, Superose 12, Arg-sepharose 200 mM arginine eluant, Mono Q)

[2] = molecular target: 48 kDa Lys-specific proteinase (PrtK48) (Porphyromonas gingivalis, UniProt Q51817); type: biochemical, P. gingivalis W50
[3] = molecular target: PrtR45, 45 kDa Arg-specific proteinase (Porphyromonas gingivalis W50); test: cell-based or functional assay
[4] = compound 1.0 mM, incubation also contained 1.0 mM 2-mercaptoethanol
[5] = compound 10.0 mM, incubation also contained 1.0 mM 2-mercaptoethanol

T1 sequence (P28784 228-719): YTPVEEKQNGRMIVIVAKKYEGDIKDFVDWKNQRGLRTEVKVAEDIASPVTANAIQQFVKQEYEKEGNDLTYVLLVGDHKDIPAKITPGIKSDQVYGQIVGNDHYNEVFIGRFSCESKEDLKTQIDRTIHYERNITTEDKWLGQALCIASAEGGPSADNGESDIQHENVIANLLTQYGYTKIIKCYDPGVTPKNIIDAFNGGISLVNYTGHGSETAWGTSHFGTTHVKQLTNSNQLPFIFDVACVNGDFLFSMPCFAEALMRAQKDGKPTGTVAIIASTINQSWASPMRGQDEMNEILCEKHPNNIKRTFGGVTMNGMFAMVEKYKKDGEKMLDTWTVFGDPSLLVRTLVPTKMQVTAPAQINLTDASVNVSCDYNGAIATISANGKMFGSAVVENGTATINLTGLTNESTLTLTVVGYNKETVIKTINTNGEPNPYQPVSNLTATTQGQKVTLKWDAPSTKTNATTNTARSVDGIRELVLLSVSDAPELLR
48 kDa Lys-specific proteinase (PrtK48), sequence (Q51817 229-680 limits assumed): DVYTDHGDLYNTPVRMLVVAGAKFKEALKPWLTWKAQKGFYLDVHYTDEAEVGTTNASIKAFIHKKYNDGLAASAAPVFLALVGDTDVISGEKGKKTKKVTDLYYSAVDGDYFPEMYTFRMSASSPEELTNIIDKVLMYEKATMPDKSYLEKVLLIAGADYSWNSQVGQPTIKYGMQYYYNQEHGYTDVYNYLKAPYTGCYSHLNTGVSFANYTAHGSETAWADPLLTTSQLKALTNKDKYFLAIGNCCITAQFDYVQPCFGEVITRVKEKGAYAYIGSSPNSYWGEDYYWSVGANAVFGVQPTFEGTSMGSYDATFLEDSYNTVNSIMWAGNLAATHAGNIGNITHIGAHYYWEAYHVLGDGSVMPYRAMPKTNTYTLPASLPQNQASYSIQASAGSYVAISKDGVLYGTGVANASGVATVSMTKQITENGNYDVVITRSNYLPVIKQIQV
PrtR45, 45 kDa Arg-specific proteinase (Porphyromonas gingivalis W50), sequence (B2RM93 225-247): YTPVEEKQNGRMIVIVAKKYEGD

NCCc1ccc(S(=O)(=O)F)cc1 [AEBSF, [4-(2-aminoethyl)-benzenesulfonylfluoride]]
Effect on the Arg-specific 45 kDa enzyme (in words) [1]: not inhibited | Activity (%) of the 45 kDa Arg-specific proteinase [1, 4]: 93% | Activity (%) of the 45 kDa Arg-specific proteinase [1, 5]: 80%

O=C(O)CN(CCN(CC(=O)O)CC(=O)O)CC(=O)O [EDTA]
Effect on the Lys-specific enzyme (in words) [2]: not inhibited | Effect on the Arg-specific 45 kDa enzyme (in words) [1]: inhibited | Activity (%) of the 45 kDa Arg-specific proteinase ([1]; EDTA +Ca2+ 50.0 mM, incubation also contained 1.0 mM 2-mercaptoethanol): 97% | Activity (%) of the 45 kDa Arg-specific proteinase [1, 4]: 100% | Activity (%) of the 45 kDa Arg-specific proteinase [1, 5]: 4% | Activity (%) of the 45 kDa Arg-specific proteinase ([1]; compound 50.0 mM, incubation also contained 1.0 mM 2-mercaptoethanol): 0%

O=S(=O)(F)Cc1ccccc1 [PMSF, phenylmethyl sulfonyl fluoride]
Effect on the Arg-specific 45 kDa enzyme (in words) [1]: not inhibited | Activity (%) of the 45 kDa Arg-specific proteinase [1, 5]: 90%

N[C@@H](CS)C(=O)O [L-cysteine]
Effect on the Arg-specific 45 kDa enzyme (in words) [1]: activated | activity at 100 µM [1]: 183% | activity at 1000 µM [1]: 320% | activity at 10000 µM [1]: 487%

O=C(O)CI [Iodoacetic acid]
activity at 1000 µM [1]: 82% | activity at 10000 µM [1]: 19%

c1cnc2c(c1)ccc1cccnc12 [o-phenanthroline]
Activity (%) of the 45 kDa Arg-specific proteinase [1, 5]: 100%

O=C(O)c1cc[c]([Hg][Cl])cc1 [PCMB, p-chloromercuribenzoic acid]
Activity (%) of the 45 kDa Arg-specific proteinase [1, 4]: 100% | Activity (%) of the 45 kDa Arg-specific proteinase [1, 5]: 14%

Leupeptin (peptide)
Activity (%) (amidolytic activity, leupeptin at 0.1 mM) [3]: 0%

CC(=O)N[C@@H](CC(C)C)C(=O)N[C@@H](CC(C)C)C(=O)N[C@H](C=O)CCCNC(=N)N [Leupeptin]
Effect on the Lys-specific enzyme (in words) [2]: not inhibited | Effect on the Arg-specific 45 kDa enzyme (in words) [1]: inhibited | activity at 100 µM [1]: 0%

OCCS [2-mercaptoethanol]
Activity (%) of the 45 kDa Arg-specific proteinase ([1]; compound 1.0 mM): 100% | Activity (%) of the 45 kDa Arg-specific proteinase ([1]; compound 10.0 mM): 158% | Activity (%) of the 45 kDa Arg-specific proteinase ([1]; compound 50.0 mM): 189%

O[C@H](CS)[C@H](O)CS (racemic) [Dithiothreitol]
activity at 1000 µM [1]: 109% | activity at 10000 µM [1]: 174%
